Reference: patent US6924309B2 (Children, Youth and Women's Health Service Incorporated, priority 1999, dated 2005)

Assays:
human neutrophils [1] = assay: AA-enhanced chemiluminescence in human neutrophils; type: cell-based; details: neutrophils pretreated with compound
Experimental: Arachidonic acid (AA) is a natural agonist which stimulates oxygen radical production in neutrophils leading to tissue damage during inflammation. Studies were conducted to examine whether or not the Lx compounds could antagonise the effects of AA. Neutrophils were pretreated with Lx compounds and then examined for chemiluminescence response to AA addition. […] The effect of Lx compounds on AA-enhanced chemiluminescence in human neutrophils is shown graphically in FIG. 11.

5-LO = 5-LO catalysed oxidation of the nitro compounds (substrate test); type: biochemical; details: pH 6.3 buffer, UV 234 nm
Experimental: Based on this consideration, 5-LO, 12-LO and 15-LO catalysed oxidation of the nitro compounds (4a, 4b, 6a, 6b, 8a and 8b) was investigated. Each of the nitro compounds was treated with 15-LO in pH 9.0 buffer (or 5-LO in pH 6.3 buffer and 12-LO in pH 7.4 buffer), and the formation of 15-hydroperoxy derivatives (or 5-hydroperoxy or 12-hydroperoxy derivatives) over time was monitored by UV spectroscopy at 234 nm.

[2] = test system: Plasmodium falciparum isolates 3D7, FC27, K+; assay: Radiometric (3H-hypoxanthine) assay on asexual blood stages of P. falciparum; type: cell-based
How it was run: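 Isolates grown in human O+ erythrocytes with 10% AB serum at 37 °C; cultures at 1×10^8 erythrocytes/ml were exposed to the fatty acids for 4 h, then pulsed with 3H-hypoxanthine for a further 18 h. Incorporated radioactivity was counted and expressed as % growth inhibition versus diluent-treated cultures.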

human neutrophils [3] = assay: Neutrophil lucigenin dependent chemiluminescence (superoxide production); type: cell-based; details: 20 μM
Experimental: The activation of human neutrophils by nitro compounds was assessed by the ability to stimulate superoxide production (chemiluminescence response) and release of lysosomal enzymes from specific and azurophilic granules. Neutrophils were prepared from whole blood taken from normal healthy volunteers by the rapid-single step procedure^(41). Briefly, blood anticoagulated with heparin was carefully layered on a hypaque-ficoll medium of 1.114 g/ml and centrifuged in swing-out-buckets at 200 g/30 min. The leukocytes were resolved into two bands and the erythrocytes sedimented at the bottom of the tube. The second leukocyte band approximately 0.7 cm from the mononuclear cell containing band at the interface contained neutrophils of >98% purity and >99% viability (trypan blue dye exclusion criteria). The neutrophils were carefully harvested with a pasteur pipette, and washed and resuspended in tissue culture medium. The respiratory burst response of neutrophils was assessed by measuring superoxide production by the lucigenin dependent chemiluminescence assay essentially as described previously^(42). Briefly, 1×10^6 neutrophils (100 μl) in HBSS were treated with the nitro analogues of fatty acids (100 μl), then lucigenin was added and the volume made up. FIG. 7 illustrates the effects of Lx compounds on the neutrophil chemiluminescence reponse. Results are the means ±SEM of 4-12 experiments. […]

CCCCC/C=C\C/C=C\C/C=C\C/C=C\CCCC(CCC(=O)O)[N+](=O)[O-] (stereo not shown) [Lx7, (a11-Z)-4-Nitrotricosa-8,11,14,17-tetraenoic acid]
Inhibition of AA-stimulated oxygen radical production (chemiluminescence) (human neutrophils [1]): particularly evident
Substrate for 5-LO (5-LO): not for 5-LO
Antimalarial activity (in words) [2]: did not have appreciable antimalarial activity
Neutrophil chemiluminescence response (human neutrophils [3]): marginal compared to 20:4n-6 and 22:6n-3
